In assay [1] the test system is Mycobacterium tuberculosis CDC1551 (intracellular, in murine BMDM). Kind of assay: area under intracellular growth-inhibition dose-response curve (AUC (% inhibition x dose, relative)); higher = more potent. Particulars: duration: 6 days; dose range: 0.13-80 uM, 8 points. Put shortly: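 Each value is an area under the growth-inhibition dose–response curve, calculated with GraphPad Prism. Infected primary murine bone marrow-derived macrophages, carrying luciferase-expressing M. tuberculosis CDC1551 at multiplicity of infection 1, were treated for 6 days with an 8-dose, 2.5-fold series (final 80–0.13 μM) in 384-well opaque plates. Readout was by Bright-Glo luciferin assay, normalised to a reference drug control and the lowest-concentration wells.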

Assay [2] relates to murine bone marrow-derived macrophages. In words: area under cytotoxicity dose-response curve (AUC (% cytotoxicity x dose, relative)); higher = more cytotoxic. Particulars: duration: 6 days; dose range: 0.13-80 uM, 8 points. Put shortly:
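An 8-point, 2.5-fold dilution series (final 80–0.13 μM) was applied for 6 days at 37 °C in 5% CO2 to primary murine bone marrow-derived macrophages plated in opaque 384-well plates. Promega's CellTiter-Glo luminescence assay measured viability, and percent cytotoxicity was normalised against vehicle and positive control wells. The area under the dose–response curve, worked out in GraphPad Prism version 10, is the reported cytotoxicity measure.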

Consider 53 molecules from the supplement of paper PMC11997997.

Each structure is given as a SMILES string.

As to `Cc1ccc(C)c2sc(N3CCN(C(=O)c4ccc([N+](=O)[O-])o4)CC3)nc12`, the “area under intracellular growth-inhibition dose-response curve” value in assay [1] is 3.34. Also, the “area under cytotoxicity dose-response curve” value in assay [2] was found to be 33.4.
Turning to `Nc1c2c(nc3sc4c(c13)CCCC4)CCCC2`, the “area under intracellular growth-inhibition dose-response curve” value in assay [1] was determined as 125. Further, the “area under cytotoxicity dose-response curve” value in assay [2] worked out at 77.7.
`CN(C)c1ccc(Nc2ncnc3ccc(Br)cc23)cc1`: the “area under intracellular growth-inhibition dose-response curve” value in assay [1] was determined as 121. Besides, the “area under cytotoxicity dose-response curve” value in assay [2] worked out at 33.3.
On to `O=C(COc1ccccc1)NCc1cccs1`, for which, in assay [1], the “area under intracellular growth-inhibition dose-response curve” value came to 130. Besides, the “area under cytotoxicity dose-response curve” value in assay [2] stood at 14.2.
For `O=C(NCc1cccs1)c1ccc(Br)o1`, in assay [1], the “area under intracellular growth-inhibition dose-response curve” value was found to be 191. Besides, the “area under cytotoxicity dose-response curve” value in assay [2] was < 0.
In the same order, the values of `Cc1ccc(/C=N/NC(=O)c2ccncc2)o1` are 213 and 78.6.
For `O=C(C=Cc1ccccc1)N1CCCCC1`, the “area under intracellular growth-inhibition dose-response curve” value in assay [1] was determined as 119. The “area under cytotoxicity dose-response curve” value in assay [2] is 46.5.
In the case of `O=C(NCc1cccc(Cl)c1)c1cccc(S(=O)(=O)N2CCCCC2)c1`, in assay [1], the “area under intracellular growth-inhibition dose-response curve” value came out at 60.1. Also, in assay [2], the “area under cytotoxicity dose-response curve” value is < 0.
Regarding `O=C(NC(=S)Nc1ccc(NC(=O)c2cccs2)cc1)c1ccco1`, in assay [1], the “area under intracellular growth-inhibition dose-response curve” value turned out to be 268. In addition, the “area under cytotoxicity dose-response curve” value in assay [2] was < 0.
In the same order, the values of `CC(NC(=O)c1ccc(F)cc1)c1ccc(F)cc1` (stereo unspecified) are 230 and 31.2.
In the same order, the values of `CCc1ccc([C@@H]2CC=C(C(=O)O)[C@H](c3ccc(C(C)(C)C)cc3)N2S(=O)(=O)c2ccc(C)cc2)cc1` are 84.8 and 78.6.
In the same order, the values of `CN(C)c1ccc(/C=N/CC2(O)CCOC(C)(C)C2)cc1` (stereo unspecified) are 1.75 and 103.
On to `CC(=O)Nc1ccc(-c2c(C)cc3oc(=O)cc(-c4ccccc4)c3c2C)cc1`, for which the “area under intracellular growth-inhibition dose-response curve” value in assay [1] came out at 221. Moreover, the “area under cytotoxicity dose-response curve” value in assay [2] came out at 113.
Consider `COc1cc(CNC23CC4CC(CC(C4)C2)C3)ccc1OCc1ccccc1.Cl`, for which the “area under intracellular growth-inhibition dose-response curve” value in assay [1] was 143. In assay [2], the “area under cytotoxicity dose-response curve” value was determined as 89.1.
In the case of `O=C(Nc1ccc(OC(F)(F)F)cc1)c1ccc2c(c1)no[n+]2[O-]`, the “area under intracellular growth-inhibition dose-response curve” value in assay [1] is 230. Further, the “area under cytotoxicity dose-response curve” value in assay [2] is < 0.
Take `Cn1cc(/C=N/NC(N)=S)c2ccccc21`: the “area under intracellular growth-inhibition dose-response curve” value in assay [1] is 275. Besides, the “area under cytotoxicity dose-response curve” value in assay [2] is < 0.
Take `O=C(NCC1CCCCC1)c1ccco1`: the “area under intracellular growth-inhibition dose-response curve” value in assay [1] was determined as 251. In assay [2], the “area under cytotoxicity dose-response curve” value amounted to 106.
For `O=C(CCN1C(=O)S/C(=C\c2ccc(F)cc2)C1=O)Nc1ccc(C(=O)O)c(O)c1`, the “area under intracellular growth-inhibition dose-response curve” value in assay [1] stood at 120. Besides, the “area under cytotoxicity dose-response curve” value in assay [2] worked out at 11.3.
In the case of `C/C(=N\NC(N)=S)c1ccc(Cl)s1`, the “area under intracellular growth-inhibition dose-response curve” value in assay [1] turned out to be 263. For the same molecule, in assay [2], the “area under cytotoxicity dose-response curve” value was < 0.
Consider `O=C1CN(C(=O)COC(=O)c2c(F)cccc2Cl)c2ccccc2N1`, for which the “area under intracellular growth-inhibition dose-response curve” value in assay [1] was 148. In addition, the “area under cytotoxicity dose-response curve” value in assay [2] is < 0.
In the same order, the values of `O=C(COc1ccccc1)NC1C(=O)N2C(C(=O)O)=C(Cl)CSC12` (stereo unspecified) are 144 and < 0.
For the molecule `CCC(C)c1ccc(NC(=S)Nc2ccc(OC)cc2)cc1` (stereo unspecified), the “area under intracellular growth-inhibition dose-response curve” value in assay [1] was 201. Moreover, the “area under cytotoxicity dose-response curve” value in assay [2] was determined as 46.7.
In the same order, the values of `Cc1cccc(OCCCC(=O)NNC(=O)c2ccncc2)c1` are 224 and < 0.
As for `CC(C)CCNC(=O)CSc1nc(O)c2ccccc2n1`, the “area under intracellular growth-inhibition dose-response curve” value in assay [1] was found to be 27.8. Moreover, in assay [2], the “area under cytotoxicity dose-response curve” value was 40.4.
As to `CCN(CC)CCNc1nc(-c2ccc(OC)cc2)c(-c2ccc(OC)cc2)s1`, the “area under intracellular growth-inhibition dose-response curve” value in assay [1] is 203. Besides, the “area under cytotoxicity dose-response curve” value in assay [2] worked out at 3.78.
In the same order, the values of `CCC(=O)NC(=S)Nc1ccc(NC(=O)c2ccc(OC)cc2)cc1` are 266 and < 0.
Consider `COc1ccc(C=CC(C)=NNC(=O)c2ccncc2)cc1`, for which the “area under intracellular growth-inhibition dose-response curve” value in assay [1] stood at 254. The “area under cytotoxicity dose-response curve” value in assay [2] was < 0.
For the molecule `CN(C)[C@@H]1C(=O)C(C(N)=O)=C(O)[C@@]2(O)C(O)=C3C(=O)c4c(O)cccc4[C@@](C)(O)C3[C@H](O)C12.Cl` (stereo partly specified), the “area under intracellular growth-inhibition dose-response curve” value in assay [1] was determined as 271. In assay [2], the “area under cytotoxicity dose-response curve” value came to 62.5.
`Cc1ccc(C)c(-c2nnc(NC(=O)c3ccc([N+](=O)[O-])o3)o2)c1`: in assay [1], the “area under intracellular growth-inhibition dose-response curve” value was 62. In addition, the “area under cytotoxicity dose-response curve” value in assay [2] came to 128.
For `COc1ccccc1C=NNC(=O)c1ccncc1`, the “area under intracellular growth-inhibition dose-response curve” value in assay [1] was 266. For the same molecule, in assay [2], the “area under cytotoxicity dose-response curve” value turned out to be 9.
In the same order, the values of `COc1ccc(NC(=S)Nc2ccc(Oc3ccccc3)cc2)cc1` are 233 and < 0.
In the same order, the values of `CCN(CC)S(=O)(=O)c1ccc2c(c1)c(=O)c(C(=O)NCCc1ccccc1)cn2C` are 157 and 22.5.
In the same order, the values of `CC1CCC(NC(=O)c2cc3c(s2)CCCC3)CC1` (stereo unspecified) are 253 and < 0.
Turning to `CN1CCN(c2c(F)cc3c(=O)c(C(=O)[O-])cn4c3c2OCN4C)CC1`, the “area under intracellular growth-inhibition dose-response curve” value in assay [1] came out at 187. For the same molecule, the “area under cytotoxicity dose-response curve” value in assay [2] came out at 18.2.
For the molecule `CC1CCN(c2ccc(NC(=O)c3ccc([N+](=O)[O-])o3)cc2)CC1.Cl`, in assay [1], the “area under intracellular growth-inhibition dose-response curve” value turned out to be 56.1. The “area under cytotoxicity dose-response curve” value in assay [2] is 90.4.
Consider `NC(=S)N/N=C/c1ccc(OC(=O)c2cccnc2)cc1`, for which the “area under intracellular growth-inhibition dose-response curve” value in assay [1] was 262. Besides, the “area under cytotoxicity dose-response curve” value in assay [2] stood at 48.
In the case of `CC(C)Oc1cccc(C(=O)N2CCCC2)c1`, the “area under intracellular growth-inhibition dose-response curve” value in assay [1] came out at 43.1. The “area under cytotoxicity dose-response curve” value in assay [2] was 54.6.
Turning to `Cn1ncc2cc(NC(N)=S)ccc21`, the “area under intracellular growth-inhibition dose-response curve” value in assay [1] came to 196. Further, in assay [2], the “area under cytotoxicity dose-response curve” value was < 0.
In the case of `O=C(c1ccc([N+](=O)[O-])o1)N(Cc1nnc(-c2ccccc2Cl)o1)C1CC1`, the “area under intracellular growth-inhibition dose-response curve” value in assay [1] was 192. In assay [2], the “area under cytotoxicity dose-response curve” value stood at 41.5.
In the same order, the values of `O=C(O)c1nc(O)nc(O)c1F` are 174 and < 0.
As to `O=C(/C=C/c1cccs1)N1CCN(Cc2ccc3c(c2)OCO3)CC1`, the “area under intracellular growth-inhibition dose-response curve” value in assay [1] came to 271. Further, the “area under cytotoxicity dose-response curve” value in assay [2] is < 0.
Regarding `O=C(Nc1ccc(N2CCN(Cc3ccccc3F)CC2)cc1)c1ccc([N+](=O)[O-])o1`, the “area under intracellular growth-inhibition dose-response curve” value in assay [1] was found to be 186. Moreover, in assay [2], the “area under cytotoxicity dose-response curve” value is 5.12.
In the case of `COc1ccc(NC(=O)Cn2c(C)cc(=O)c3ccccc32)cc1`, in assay [1], the “area under intracellular growth-inhibition dose-response curve” value stood at 182. Also, the “area under cytotoxicity dose-response curve” value in assay [2] was < 0.
`Cl.O=C(CCN1CCN(CCO)CC1)N1c2ccccc2Sc2ccc(C(F)(F)F)cc21`: in assay [1], the “area under intracellular growth-inhibition dose-response curve” value came out at 61.3. Further, in assay [2], the “area under cytotoxicity dose-response curve” value amounted to 75.
Regarding `O=C(COc1ccccc1)NC(=S)Nc1ccc2c(c1)Cc1ccccc1-2`, the “area under intracellular growth-inhibition dose-response curve” value in assay [1] worked out at 190. Moreover, in assay [2], the “area under cytotoxicity dose-response curve” value was found to be 74.
For `O=C(O)/C=C\C(=O)O.OC(CCCN1CCCCC1)(c1ccccc1)c1ccc(C(F)(F)F)cc1` (stereo unspecified), the “area under intracellular growth-inhibition dose-response curve” value in assay [1] worked out at 214. In addition, in assay [2], the “area under cytotoxicity dose-response curve” value is 32.3.
For `O=C(Nc1ccc(N2CCN(C(=O)c3ccccc3)CC2)cc1)c1ccc([N+](=O)[O-])o1`, in assay [1], the “area under intracellular growth-inhibition dose-response curve” value amounted to 127. In addition, the “area under cytotoxicity dose-response curve” value in assay [2] was found to be 24.1.
In the case of `NC(=S)N/N=C/C=C/c1ccccc1`, in assay [1], the “area under intracellular growth-inhibition dose-response curve” value was 243. For the same molecule, the “area under cytotoxicity dose-response curve” value in assay [2] was determined as 82.2.
`Fc1ccc(C2=CC(c3cccs3)n3nnnc3N2)cc1` (stereo unspecified): the “area under intracellular growth-inhibition dose-response curve” value in assay [1] was 216. Besides, in assay [2], the “area under cytotoxicity dose-response curve” value is < 0.
Consider `COc1ccc(C(C)NC(=O)c2ccccc2)cc1` (stereo unspecified), for which the “area under intracellular growth-inhibition dose-response curve” value in assay [1] was 222. Also, the “area under cytotoxicity dose-response curve” value in assay [2] worked out at 237.
Take `CCOc1ccc(C(=O)NC(=S)Nc2ccc(N3CCC(C)CC3)cc2)cc1[N+](=O)[O-]`: the “area under intracellular growth-inhibition dose-response curve” value in assay [1] turned out to be 254. Besides, the “area under cytotoxicity dose-response curve” value in assay [2] stood at 81.7.
On to `CCN1/C(=C/C(C)=C/c2sc3ccccc3[n+]2CC)Sc2ccccc21.[I-]`, for which the “area under intracellular growth-inhibition dose-response curve” value in assay [1] was determined as 138. Besides, in assay [2], the “area under cytotoxicity dose-response curve” value is 94.9.
In the same order, the values of `COc1ccc(-c2c(C)cc3oc(=O)cc(-c4ccccc4)c3c2C)cc1` are 154 and 33.9.
